Values after ≈ are worked out from the molar mass of the structure shown.

One series relates to mcr-1 bacterial membrane. Nature of the series: Ethidium bromide (EtBr) fluorescence, membrane disruption. The note with it: mcr-1 bacteria; in words. It counts as cell-based. The protocol:
However, EtBr is membrane impermeable, which means that it can only enter the bacterial cell and bind to DNA and emit fluorescence only when both the bacterial outer and inner membranes are perturbed. […] It is also possible that LC100 may have other targets. One possible target is the MCR-1 protein. To understand the interaction of LC100 and the MCR-1 protein, the fluorescence of MCR-1 protein in the presence of different concentration of LC100 was measured. MCR-1 protein contains several tryptophan residues, and autofluoresces at 323 nm.

Series [1] concerns colistin resistant MCR (+) E. Coli strains. Nature of the series: MIC, broth microdilution, compound alone. It counts as cell-based. The gist of the method: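 Wells held ~5×10^5 CFU/mL of bacteria prepared to 0.5 McFarland from overnight TSA colonies and exposed to serially diluted agents, following modified CLSI microdilution. After 24 h at 35 °C, growth judged by turbidity (OD600 possible); 99% inhibition sets the MIC.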

The subject of series [2] is ACBA multi-drug resistant strains. The series can be described thus: MIC against multi-drug resistant strains (Table 5). It counts as cell-based, Acinetobacter baumannii. Particulars: alone. As to the method:
MIC experiments of the antimicrobial agents were determined by a modified broth microdilution method in accordance with the Clinical and Laboratory Standards Institute (CLSI) guidelines using 96 well culture plates. In brief, serial dilutions of all plates were prepared at different concentrations (μg). The inoculum suspension was prepared by adding isolated colonies from a 18-20 hours on TSA plate into phosphate buffer (0.31 mM, pH 7.2) or in water for injection (BBraun) and adjusting the suspension to a turbidity equivalent to 0.5 McFarland Standard. Each well contained a final bacterial concentration of approximately 5×10^5 colony forming units (CFU)/mL. The plate was covered and incubated at 35° C. for 24 hours. […] For the microdilution plates, turbidity in wells can be measured at OD600 using TECAN infinite M200Pro. MIC was determined as […] concentration that gives a 99 percent inhibition.

The test system of series [3] is MCR positive E. coli Clinical isolate 6083655967. The series is classed as in vivo. The note with it: for reduction in bacterial burden: neutropenic mice, i.p. 1 hour after infection, 6 hours after treatment, colistin 10 mg/kg, LC100 50 mg/kg, meropenem 100 mg/kg, combination 50 + 10 mg/kg. The protocol:
FIG. 21 refers to graphs showing the efficacy testing of combination of LC100 and Colistin in neutropenic mouse thigh infection model infected with MCR positive E. coli Clinical isolate 6083655967. Starting inoculum was 1.87×10^6, N=3. “Combination” refers to Colistin 10 mg/kg+LC100 50 mg/kg. Each treatment was done intraperitoneally 1 hour after infection. 6 hours after treatment, mouse thigh tissues were homogenized for viable CFU.
The combination of colistin and antimicrobial peptide (LC100) was tested against E. coli clinical isolate MCR-positive strain 6083655967 in a neutropenic mouse thigh infection model. C57BL/6 mice were rendered neutropenic by cyclophosphamide, dosed at 150 and 100 mg kg-1 delivered on days −4 and −1 prior to infection. Bacteria were suspended in sterile saline and adjusted to a concentration of ˜1.876×10^6 CFU per infection site (100 micro-liters) and injected intramuscularly into the right thigh of five mice per treatment group. At 1 h post infection, mice received colistin ([…], i.p. n=5), LC100 (50 mg kg-1, i.p. n=5), untreated (n=5), or the combination (n=5). Mice were euthanized 6 h after infection; thigh tissue was aseptically collected, homogenized, serially diluted in PBS and plated onto solid TSA supplemented plates. Plates were incubated overnight at 37° C. and colonies were quantified to determine bacterial load.
To evaluate the in vivo efficacy of the combination of LC100 and colistin, a neutropenic mouse thigh infection model was used. 30 mice were classed into 5 groups: control, colistin at 10 mg/kg, LC100 at 50 mg/kg, meropenem at 100 mg/kg and combination of 50 mg/kg of LC100 and 10 mg/kg of colistin. Each treatment was administered intraperitoneally 1 hour after infection. The starting inoculum was 1.87×10^6, and 6 hours after treatment, mouse thigh tissues were homogenized for viable CFU. […] As neutropenic mice were used in the study, the 1.2 log reduction in bacterial burden is due to the combination of LC100 and colistin rather than the immune system of the mouse.

The subject of series [4] is colistin resistant mcr-1 (+) strains 6083655967, 6075066346 and mcr-1 (−) strain 7023446108. Nature of the series: Time kill study. It counts as cell-based, E. coli. Particulars: in 2 hours. The protocol: Time kill assay is used to determine the rate at which concentrations an antimicrobial agent kill a bacterial isolate. The bacterial suspension was adjusted to 10^6 to 10^7 CFU/mL with different concentrations of LC compounds and the antibiotics for comparison in separate tubes that incubated at 35° C. For synergy time kill: Two different antimicrobial agents which are antibiotic/LC compounds were added in an equal amount make a final volume to 1 mL (e.g: 500 μL of Antibiotic: 500 μL of LC compound) and subsequently 1 mL of prepared bacteria suspension were added into the same tube. Aliquots of 100 μL samples will be withdrawn at different time intervals (0, 1, 2, 4, 8, 24 hours) and were plated on Mueller Hinton Agar (MHA) upon set of serial dilutions. Subsequently, after 24 and 48 hours, all the plates were checked for bacteria growth and the colonies were calculated for colony-forming unit (CFU/mL) numeration and the time kill curve plotted with logarithm of the viable count against time. The results from various concentrations of antibiotics and control were plotted.
To understand the action of the combinations of LC100 with colistin, time kill experiments using the inventive combination in three colistin resistant strains, including two mcr-1(+) and one mcr-1(−) strains, were carried out.

Setting [5] is: strain 6075066346, MCR (+), compound alone.
The mark [6] stands for this setting: strain 6083655967, MCR (+), compound alone.
[7] abbreviates: strain 6103645107, MCR (+), compound alone.
[8] abbreviates: strain 6123520276, MCR (+), compound alone.
Where [9] appears, read: strain 7013177695, MCR (+), compound alone.
Setting [10] is: strain 7023436560, MCR (+), compound alone.

For the compound `CCN(CC)CCCCOc1ccc(/C=C/C(=O)c2ccc(OCCCCN(CC)CC)c(CC=C(C)C)c2O)cc1` [LC100], the EtBr fluorescence result with mcr-1 bacterial membrane is “slight fluorescence”. Also, the “antimicrobial activity when used alone” value in series [1] (colistin resistant bacteria, in words) is listed as “no activity”. In addition, the MIC in series [1] (setting [5]), in series [1] (setting [6]), in series [1] (setting [7]), in series [1] (setting [8]), in series [1] (setting [9]) and in series [1] (setting [10]) was 100 µg/mL (≈ 173 µM) throughout. In addition, the minimal inhibitory concentration (MIC) in series [1] (strain 7028444207 (Table 1b), MCR (+), compound alone) is 100 µg/mL (≈ 173 µM); in series [2] (strain ACBA 1010), 25 µg/mL (≈ 43.2 µM); in series [2] (strain ACBA 1012), 50 µg/mL (≈ 86.4 µM); in series [2] (strain ACBA 43357) it was 50 µg/mL (≈ 86.4 µM); in series [2] (strain ACBA ATCC 19606) it was over 50 µg/mL. For the same compound, the “observations in treated mice” value in series [3] (LC100 50 mg/kg or Colistin 10 mg/kg+LC100 50 mg/kg, intraperitoneally) was “Abdominal distension”. Besides, in series [3], the “reduction in bacterial burden” value was “cannot reduce the bacterial burden”. Further, the “log reduction in time kill” value in series [4] (⅛ MIC of colistin in the presence of 10 μg/ml of LC100) was 3 log.

On to Colistin, for which, in the series on mcr-1 bacterial membrane, the EtBr fluorescence entry was “slight fluorescence”. For the same compound, the “colistin MIC” value in series [1] (colistin alone) is on record as “more than 6 μg/ml”. For the same compound, the MIC in series [1] (panel of colistin resistant strains), in series [1] (setting [5]), in series [1] (setting [6]), in series [1] (setting [7]), in series [1] (setting [8]) and in series [1] (setting [9]) was 6.25 µg/mL in each case. Further, the MIC came to 6.25 µg/mL in series [1] (setting [10]); 6.25 µg/mL in series [1] (strain 7023444207, MCR (+), compound alone); 0.78 µg/mL in series [2] (strain ACBA 1010); 0.78 µg/mL in series [2] (strain ACBA 1012); 3.125 µg/mL in series [2] (strain ACBA 43357); 1.56 µg/mL in series [2] (strain ACBA ATCC 19606). For the same compound, the “reduction in bacterial burden” value in series [3] is “cannot reduce the bacterial burden”. Further, the “log reduction in time kill” value in series [4] (colistin at concentrations equal or above the MIC) is 3 log.

These data come from US12473250B2, “Molecular design of new antibiotics and antibiotic adjuvants against MCR strains” (priority 2019, dated 2025).
